Literature values in patent EP2042172A1, “Use of tocopherol derivatives as inhibitors of the notch signalling pathway” (Inserm, priority 2007, dated 2009).

System: axonal growth
Settings: even in the presence of inhibitory signals (Hanbali et al., 2004); cited from earlier work

CC1=C(CCCCCCCCCCCCCCCO)C(C)(C)CCC1=O [tCFA15]
axonal growth in vitro: promote axonal growth in vitro
